The subject of the assay is Plasmodium falciparum. As to the kind of experiment: GSK_TCMDC: Inhibition of Plasmodium falciparum 3D7 in whole erythrocytes, using parasite LDH activity as an index of growth. The settings on record: Plasmodium falciparum, 3D7. Type of assay: functional, organism-based.
With `Cc1nc2c(s1)c(=O)cc(CCc1cccc(F)c1F)n2CC(=O)N(Cc1ccc(-c2ccc(C(F)(F)F)cc2)cc1)C1CCN(C(C)C)CC1`, the XC50 was 767 nM.

Turning to `Nc1nc(N)c2c(ccc3c2ccn3Cc2ccc(F)cc2)n1`, the XC50 came out at 6.53 nM.

The compound `CC(C)CCNc1nc(NCCc2ccccc2)c2cc(O)ccc2n1` registered an XC50 of 238 nM.

For `Cc1ccc(NC(C)C(=O)Nc2ccc(C#N)cc2)cc1S(=O)(=O)N1CCCCC1` (stereo not drawn), the XC50 is 545 nM.

As to `Cc1ccc(Cn2cnc(N3CC(C)NC(C)C3)cc2=O)cc1NC(=O)Nc1ccc(-c2ccccc2)cc1` (stereo not drawn), the XC50 was 851 nM.

`CC(C)(C)C(=O)Nc1ccccc1Oc1ccc(Cl)cc1` showed an XC50 of 7.48 nM.

`CCn1c(-c2nonc2N)nc2c(-c3cccc(NC(=O)Nc4ccc(C(F)(F)F)cc4)c3)ncc(OCCCN)c21` returned an XC50 of 1050 nM.

Consider `Cc1ccc(CN2CCC(Oc3cccc(NC(=O)c4ccc(C(F)(F)F)cc4)c3)CC2)cc1`, for which the XC50 was 1020 nM.

`COc1ccc(Cn2c(N3CCN(S(=O)(=O)c4ccc(OC)cc4)CC3)nc3c2c(=O)n(CC2CC2)c(=O)n3CC2CC2)cc1` had an XC50 of 892 nM.

In turn, `COc1cc2c(cc1C(F)(F)F)N(C(=O)Nc1cccc(-c3ccc(CN(C)C)cc3)c1)CC2` came in with an XC50 of 710 nM.

On to `CN(C)Cc1cccc(CNC(=O)c2sccc2OCc2ccc(Cl)cc2)c1`, for which the XC50 came to 835 nM.

Compound `N#Cc1cccc(NC(=O)c2ccc(S(=O)(=O)NCC3CCCN3CC3CCCCC3)cc2)c1` (stereo not drawn) came in with an XC50 of 1050 nM.

Consider `Nc1c2c(nc3ccc(C(=O)Nc4ccc(Br)cc4)cc13)CCCC2`, for which the XC50 was found to be 149 nM.

`Nc1nc(N)c2c(ccc3c2ncn3Cc2ccccc2)n1` returned an XC50 of 93.4 nM.

On to `CCCCCCCc1c(C)nc2c(OC)cccc2c1O`, for which the XC50 came to 921 nM.

As to `COc1ccc(CNCc2ccc(-c3ccc(-c4nc5cc(C(F)(F)F)ccc5[nH]4)cc3)cc2)cc1`, the XC50 turned out to be 135 nM.

The compound `Cc1cccc(-n2c(Nc3ccc(C)c(Cl)c3)nc3ccc(S(=O)(=O)NC(C)C(C)C)cc32)c1` (stereo not drawn) yielded an XC50 of 648 nM.

In turn, `CNCC(O)c1cc(Cl)c(Cl)cc1C` (stereo not drawn) yielded an XC50 of 922 nM.

In turn, `c1ccc(Oc2ccc(Nc3ccnc4cc(-c5csc(CNCCN6CCOCC6)n5)ccc34)cc2)cc1` came in with an XC50 of 708 nM.

The compound `O=C(NCc1ccc(C(F)(F)F)cc1)c1cccc(-c2nnc(-c3cccc(-c4cncnc4)c3)o2)c1` yielded an XC50 of 544 nM.

In turn, `Cc1cccc(C(=O)Nc2ccnc(N3CCC(N(C)Cc4ccc(C#N)cc4)CC3)c2)c1` came in with an XC50 of 912 nM.

In turn, `Cc1ccccc1CCNC(=O)c1ccc(N2CCN(c3ccncc3)CC2)nc1` displayed an XC50 of 1390 nM.

As for `CCNc1cc(C(=O)N[C@@H](Cc2ccccc2)[C@H](O)CNCc2cccc(-c3cncnc3)c2)cc(N2CCCC2=O)c1`, the XC50 was 663 nM.

With `Cc1cccc(Nc2c(-c3cc(Br)ccc3O)nc3ncccn23)c1`, the XC50 is 206 nM.

The compound `COc1ccc(C2CC(=O)C3=C(C2)NC(C)=C(C(=O)OC(C)C)C3c2cccc(O)c2)cc1OC` (stereo not drawn) displayed an XC50 of 785 nM.

`N=C(N)c1ccc2[nH]c(SCc3ccccc3)nc2c1` had an XC50 of 687 nM.

In turn, `CC[C@H]1CN2CC[C@@H]1C[C@H]2[C@H](O)c1cc(N2CCC(N3CCCCC3)CC2)nc2ccc(OC)cc12` gave an XC50 of 267 nM.

As for `CN(C)CCOc1cc(NC(=O)c2ccc(-c3ccc(Cl)cc3Cl)cc2)ccc1-c1ccccc1`, the XC50 was found to be 906 nM.

For the compound `CS(=O)(=O)Cc1ccc(Nc2nccc(-c3c(-c4cccc(C(=O)Nc5c(F)cccc5F)c4)nn4ccccc34)n2)cc1`, the XC50 was 532 nM.

With `CCc1cc(OC)c(C(=O)NC2CCN(C[C@H](O)c3ccnc4ccc(OC)cc34)CC2)cc1Br`, the XC50 worked out at 815 nM.

`CCCCNCc1ccc(OCc2cccc(COc3ccc(CNCCCC)cc3)c2)cc1` yielded an XC50 of 318 nM.

As to `COCCNCc1ccc(-c2ccc(CN(C(=O)Nc3ccccc3)C3CCN(Cc4ccccc4)CC3)cc2)cc1`, the XC50 worked out at 746 nM.

The compound `Cc1ccccc1C1CCN(C2CCC(NC(=O)C3=Cc4ccccc4OC3)CC2)CC1` (stereo not drawn) came in with an XC50 of 935 nM.

For the compound `COc1ccc(NC(=O)/C=C/c2ccccc2Cl)cc1OCCN1CCC(N2CCCCC2)CC1`, the XC50 worked out at 901 nM.

`COc1ccc(CC(=O)NC2CCN(c3ccnc4cc(Cl)ccc34)C2)cc1` (stereo not drawn) came in with an XC50 of 241 nM.

Regarding `CS(=O)(=O)CCNCc1ccc(-c2ccc3c(Nc4ccc(F)cc4Cl)ccnc3c2)o1`, the XC50 turned out to be 744 nM.

`Cc1ccc2[nH]c(C)cc(=NN=Cc3ccc(Cl)cc3)c2c1` had an XC50 of 992 nM.

For `Oc1ccc(Br)cc1-c1nc2ccc(Cl)cc2nc1-c1cc(Br)ccc1O`, the XC50 came to 789 nM.

As for `CN1CCN(c2ccc(Nc3ncc(Cl)c(Nc4cccnc4C(N)=O)n3)cc2)CC1`, the XC50 came to 153 nM.

In the case of `OC1CCCN(Cc2ccc(-c3ccc(-c4nc5cc(F)ccc5[nH]4)cc3)cc2)C1` (stereo not drawn), the XC50 came to 854 nM.

`Cc1ccc(O)cc1Nc1c(C(N)=O)cnc2ccc(-c3cncs3)cc12` yielded an XC50 of 670 nM.

`COc1cc2nc(N3CCC(CNC(=O)c4cc(Br)c(Br)s4)CC3)nc(N)c2cc1OC` displayed an XC50 of 707 nM.

In the case of `CCOc1cc2ncnc(Nc3ccc(OCc4ccccc4OC)c(OC)c3)c2cc1OCC`, the XC50 worked out at 879 nM.

For `CC(ON1C(N)=NC(N)=NC1(C)C)c1ccccc1` (stereo not drawn), the XC50 amounted to 10.9 nM.

`Fc1ccc2[nH]c3c(NCCCN4CCOCC4)ncnc3c2c1` displayed an XC50 of 714 nM.

The compound `O=C(NCCN1CCC(c2ncc(-c3ccccc3)o2)CC1)c1ccc(NC(=O)c2ccc(Cl)cc2)cc1` yielded an XC50 of 244 nM.

`C=CCn1c(C)cc(C(=O)COc2ccc(S(=O)(=O)N3CCOCC3)cc2[N+](=O)[O-])c1C`: the XC50 was found to be 1110 nM.

As for `CCOC(=O)C(NC(=O)Cc1ccccc1)C(C)C` (stereo not drawn), the XC50 turned out to be 295 nM.

`O=C(NC1CC1)c1cnc(N2CCC(OCc3ccccc3)CC2)c(Cl)c1`: the XC50 stood at 1400 nM.

`Cc1ccc(F)cc1-c1cc(N2CCCN(C(=O)c3ccc(Br)o3)CC2)ncn1` had an XC50 of 1430 nM.

In turn, `CCn1ccc2c3c(N)nc(N)nc3ccc21` returned an XC50 of 313 nM.

`O=C(Nc1ccc(Cn2ncc(N3CCCNCC3)c(Cl)c2=O)cc1)Nc1ccc(SC(F)(F)F)cc1` showed an XC50 of 529 nM.

`O=C(CSc1nc2ccccc2c(=O)n1CC1CCCO1)Nc1cc(C(F)(F)F)ccc1Cl` (stereo not drawn): the XC50 is 229 nM.

`Cc1[nH]c2ccccc2c(=O)c1Br`: the XC50 turned out to be 843 nM.

As for `O=C(Nc1ccc(F)cc1)NC1CCN(c2ccnc3ccccc23)C1` (stereo not drawn), the XC50 was determined as 873 nM.

For the compound `COc1ccc(C23Oc4cc(OC)cc(OC)c4C2(O)C2(CC3c3ccccc3)SCCCS2)cc1` (stereo not drawn), the XC50 was 124 nM.

With `N#Cc1cccc(NC(=O)Nc2cccc(-c3cccc(-c4nc5ccccc5[nH]4)c3)c2)c1`, the XC50 was found to be 90.2 nM.

Regarding `Nc1ccn([C@@H]2O[C@H](COC(c3ccccc3)(c3ccccc3)c3ccccc3)[C@@H](O)[C@@H]2O)c(=O)n1`, the XC50 came out at 834 nM.

Compound `COc1ccc(Br)cc1C1Nc2ccc3ccccc3c2C2=C1C(=O)CC(c1ccccc1)C2` (stereo not drawn) displayed an XC50 of 590 nM.

`Cc1ccc(NC(=O)c2ccc(CN3CCCN(CC4CCCCC4)CC3)cc2)cc1F` had an XC50 of 290 nM.

For `Cc1cccc2nc(-c3ccc(-c4cccc(CN5CCC(CCN6CCCCC6)CC5)c4)s3)[nH]c12`, the XC50 was 140 nM.

`c1cc(Nc2nc(-c3ccc(-c4csc(Nc5ccncc5)n4)cc3)cs2)ccn1` had an XC50 of 117 nM.

Consider `COc1ccc(S(=O)(=O)NC2CCN(c3cc(C)nc(Nc4cccc(C#N)c4)n3)CC2)cc1`, for which the XC50 is 946 nM.

For the origin of these results see ChEMBL document CHEMBL1157539, “Thousands of chemical starting points for antimalarial lead identification” (Nature, 2010).
